Reference: the NIST ThermoML archive (doi:10.1016/j.jct.2017.06.008)

Legend:
[1] = refractive index (Na D-line) (dimensionless); xn = mol fraction of the nth substance listed; conditions: 100 kPa, Liquid, Standard Abbe refractometry
[2] = xn = mol fraction of the nth substance listed; conditions: 100 kPa, Liquid; for speed of sound: Frequency=3 MHz, Single path-length method; for mass density: Vibrating tube method

CC(=O)CC(C)C [4-methylpentan-2-one] + C1CCCCC1
Conditions	mass density, 293.15 K [kg/m3]	mass density, 303.15 K [kg/m3]	mass density, 313.15 K [kg/m3]	refractive index, 293.15 K	refractive index, 303.15 K	refractive index, 313.15 K	speed of sound, 293.15 K [m/s]	speed of sound, 303.15 K [m/s]	speed of sound, 313.15 K [m/s]
[1], x1 = 0.0978	–	–	–	1.421	1.416	1.411	–	–	–
[1], x1 = 0.1984	–	–	–	1.417	1.412	1.406	–	–	–
[1], x1 = 0.3014	–	–	–	1.413	1.408	1.403	–	–	–
[1], x1 = 0.4007	–	–	–	1.41	1.405	1.4	–	–	–
[1], x1 = 0.5023	–	–	–	1.407	1.402	1.397	–	–	–
[1], x1 = 0.6028	–	–	–	1.404	1.399	1.394	–	–	–
[1], x1 = 0.7038	–	–	–	1.402	1.397	1.392	–	–	–
[1], x1 = 0.8062	–	–	–	1.399	1.395	1.39	–	–	–
[1], x1 = 0.9004	–	–	–	1.398	1.393	1.388	–	–	–
[1], x1 = 1	–	–	–	1.396	1.391	1.387	–	–	–
[2], x1 = 0.0978	778	769	759	–	–	–	1260.7	1212.6	1165.6
[2], x1 = 0.1984	780	770	760	–	–	–	1246.9	1200	1154
[2], x1 = 0.3014	781	772	762	–	–	–	1236.2	1190.3	1145.3
[2], x1 = 0.4007	783	774	764	–	–	–	1228.8	1183.5	1139.2
[2], x1 = 0.5023	786	776	767	–	–	–	1222	1178	1134.6
[2], x1 = 0.6028	788	779	770	–	–	–	1217.4	1174.2	1131.6
[2], x1 = 0.7038	791	782	773	–	–	–	1214.2	1171.8	1129.9
[2], x1 = 0.8062	794	785	776	–	–	–	1212.1	1170.4	1129.2
[2], x1 = 0.9004	797	788	779	–	–	–	1211.3	1170.2	1129.6
[2], x1 = 1	801	792	782	–	–	–	1212.3	1171.4	1131.4

CC(=O)CC(C)C [4-methylpentan-2-one] + CC#N
Conditions	mass density, 293.15 K [kg/m3]	mass density, 303.15 K [kg/m3]	mass density, 313.15 K [kg/m3]	refractive index, 293.15 K	refractive index, 303.15 K	refractive index, 313.15 K	speed of sound, 293.15 K [m/s]	speed of sound, 303.15 K [m/s]	speed of sound, 313.15 K [m/s]
[1], x1 = 0.102	–	–	–	1.355	1.35	1.345	–	–	–
[1], x1 = 0.1961	–	–	–	1.363	1.358	1.353	–	–	–
[1], x1 = 0.3082	–	–	–	1.371	1.366	1.361	–	–	–
[1], x1 = 0.4019	–	–	–	1.376	1.371	1.367	–	–	–
[1], x1 = 0.5188	–	–	–	1.381	1.377	1.372	–	–	–
[1], x1 = 0.6001	–	–	–	1.385	1.38	1.375	–	–	–
[1], x1 = 0.7014	–	–	–	1.388	1.384	1.379	–	–	–
[1], x1 = 0.8008	–	–	–	1.391	1.387	1.382	–	–	–
[1], x1 = 0.8801	–	–	–	1.393	1.389	1.384	–	–	–
[1], x1 = 1	–	–	–	1.396	1.391	1.387	–	–	–
[2], x1 = 0.102	786	776	765	–	–	–	1280.4	1239.9	1199.1
[2], x1 = 0.1961	790	779	769	–	–	–	1267.6	1226.3	1185.4
[2], x1 = 0.3082	792	782	772	–	–	–	1255.2	1213.5	1172.5
[2], x1 = 0.4019	794	784	774	–	–	–	1245.9	1204.6	1163.8
[2], x1 = 0.5188	796	787	777	–	–	–	1237.4	1195.8	1155
[2], x1 = 0.6001	797	788	778	–	–	–	1231.4	1190.3	1149.7
[2], x1 = 0.7014	798	789	779	–	–	–	1225.4	1184.5	1144
[2], x1 = 0.8008	799	790	780	–	–	–	1220.8	1179.6	1139.3
[2], x1 = 0.8801	800	791	781	–	–	–	1216.6	1175.9	1135.7
[2], x1 = 1	801	792	782	–	–	–	1212.3	1171.4	1131.4
